Measurements reported in US9585958B2, “Compositions and methods for reducing lactate levels” (The Regents of the University of California, priority 2013, dated 2017).

Experiments:
[1] = Permeation through DMPC liposomes (lactate assay kit); format: in vitro ADME; conditions: 112 mM
Experimental: It was investigated whether ABA can enhance lactate membrane permeability. Liposomes were generated from 1,2-dimyristoyl-sn-glycero-3-phosphocholine (DMPC), by evaporating 400 μL of 1 mg/mL of DMPC in chloroform in a 100 mL glass flask to completion; and the lipids were re-suspended in 400 μL PBS, thereby forming the liposomes. 50 μL of the liposomes and 50 μL of 112 mM ABA premixed with lactate were then added to the wells of the 96-well plate, and lactate assay kit was performed, according to the manufacturer's instructions. As controls, 50 μL of PBS and 50 μL of 112 mM ABA premixed with lactate were then added to the wells of the 96-well plate and lactate assay kit was performed, according to the manufacturer's instructions. Furthermore, for determining the permeability of lactate through the liposomes, 50 μL of the liposomes and 50 μL of 112 mM lactate were added to the wells of the 96-well plate, and lactate assay kit was performed, according to the manufacturer's instructions. As controls, 50 μL of PBS and 50 μL of 112 mM lactate were added to the wells of the 96-well plate and lactate assay kit was performed, according to the manufacturer's instructions.

[2] = Log D measurements (octanol/PBS, 13C NMR); format: physicochemical; conditions: octanol / 1×PBS pH 7.4, 16 h shaking
Experimental: 45 μmoles of ABA and 3-^13C-sodium L-lactate dissolved in 500 μL of 1×PBS at pH 7.4 were added to 500 μL of octanol and vigorously shaken for 16 h and then centrifuged for 2 min at 10,000×Gs to extract PBS. A 200 μL of D2O along with 188.7 μmoles (10 μL of 99.8%) of acetonitrile was added to the PBS and a carbon NMR was performed with 16 scans. The area under the curve for the NMR traces obtained was calculated using Mest-ReC software. Similarly, a carbon NMR was performed with 16 scans on a solution containing 45 μmoles of ABA, 45 μmoles of 3-^13C-sodium L-lactate dissolved in 500 μL of 1×PBS at pH 7.4 along with 200 μL of D2O and with 188.7 μmoles (10 μL of 99.8%) of acetonitrile. Area under the curve for the NMR traces obtained was calculated using Mest-ReC software. Acetonitrile peak at δ=1.47 was used as reference.
Furthermore, as controls, 3-^13C-sodium L-lactate dissolved in 500 μL of 1×PBS at pH 7.4 was added to 500 μL of octanol and vigorously shaken for 16 h and then centrifuged for 2 min at 10,000×Gs to extract PBS. A 200 μL of D2O along with 188.7 μmoles (10 μL of 99.8%) of acetonitrile was added to the PBS and a carbon NMR was performed with 16 scans. The area under the curve for the NMR traces obtained was calculated using Mest-ReC software. […] Area under the curve for the NMR traces obtained was calculated using Mest-ReC software.

For `C[C@H](O)C(=O)[O-].[Na+]` [lactate, sodium L-lactate], the permeation through liposomes [1] was “did not permeate through the liposomes” and the “Log D” value [2] was −2.
